Square brackets hold non-standard residues; d marks the D form. Ends that are not written are not given here.
Columns and labels:
human GPR54 = human GPR54 (Homo sapiens, UniProt Q969F8); experiment: Flow cytometric calcium flux assay, response to peptide alone (agonist / intrinsic activity); assay type: cell-based; parameters: host or cells: rat hematopoietic CHEM1 cells expressing endogenous Galpha15; conditions: any tested concentration, 10^-13 to 10^-5 M; n = 3
Method: In vitro analyses of the effects of kisspeptin and kisspeptin antagonists, were performed using HT[…] cells (rat hematopoietic CHEM1 cells expressing endogenous Gα15 and, stably expressing the human GPR54 receptor (Millipore BV, the Netherlands), CHEM1-GPR54. Cells were counted and suspended in HBSS+++ at a concentration of 5*10^6 cells/ml. To load the cells with the fluorescent dye ester they were incubated in HBSS+++ adjusted to a concentration of 2 μM Fluo-3 AM (Molecular Probes, Life Technologies, the Netherlands) for 1h at 37°C under agitation in the dark. After incubation, the cells were washed by adding HBSS+++ to a volume of 10 ml followed by centrifugation (5 min, 150 x g) to remove excess of Fluo-3AM. […] Thereafter the tube was removed briefly and 25 μl peptide (see below) was added, after which aspiration and analysis continued. For statistical analyses fluorescent data recorded during the time interval 30-60 seconds after initiation of measurement were used. […] Experiments were performed 3 times. Representative flow cytometry results are depicted in Fig 1. […] We then assessed whether these antagonists could compete with KP10 for its receptor. […] For this purpose 25 μl quantities of the antagonists were added to 200 μl of Fluo-3 AM labelled cells (10^6 cells/ml) and incubated for 15 min. […] Peptides p354 and p356 were tested three times with both human and canine KP10; while peptides p234 and p271 were tested three times with human KP10 and once with canine KP10. […] A multivariate general linear model was set up to analyze differences in calcium response between the different concentrations, with Dunnett's test as a post hoc procedure for the antagonists and Bonferroni's test for the agonists.

LH pulses = conditions: intact and ovariectomized ewes; continuous intracerebroventricular; cited from earlier work
plasma LH concentration [1] = experiment: Other studies with p271 up to 600 μg/kg/h in castrated male dogs and anestrous bitches (unpublished); assay type: in vivo, dog; conditions: doses of up to 600 μg/kg/h, unpublished data
Method: These doses also had no effect on plasma LH concentration in the castrated male dogs or on the KP10-induced LH response in the female dogs (unpublished data). It is therefore unlikely that the lack of antagonistic effects is related to the dose of 50 μg/kg/h used in the present study.

plasma LH concentration [2] = conditions: bitches; anestrus, follicular phase, two stages of luteal phase; cited from earlier work
Description: Sensitivity to exogenous KP10 differs according to the stage of the reproductive cycle, as has been shown in rats, ewes, bitches, and women. In the bitch, the highest KP10-induced LH response was obtained during anestrus and the lowest was during the follicular phase. It is possible that the effects of a KP antagonist also differ among the cycle stages.

circulating LH / puberty = conditions: cited from earlier work
Method: The development of kisspeptin antagonists contributed to an improved understanding of the role of kisspeptin in the reproductive system. Roseweir et al. developed several KP10 analogues and tested their effect on inositol phosphate (IP) release in Chinese hamster ovarian (CHO) cells stably expressing the human GPR54. […] The kisspeptin antagonists were administered intravenously in a dose of 50 μg/kg/h, and had no effect on either the basal plasma LH concentration during the continuous administration or on the KP10-induced LH response. These findings are in line with a previous study in female dogs. […] Adult male rats received an intrape ...

[3] = adult male rats, 5 nmol ip every hour for three hours

Chain of human GPR54 (Q969F8 whole entry): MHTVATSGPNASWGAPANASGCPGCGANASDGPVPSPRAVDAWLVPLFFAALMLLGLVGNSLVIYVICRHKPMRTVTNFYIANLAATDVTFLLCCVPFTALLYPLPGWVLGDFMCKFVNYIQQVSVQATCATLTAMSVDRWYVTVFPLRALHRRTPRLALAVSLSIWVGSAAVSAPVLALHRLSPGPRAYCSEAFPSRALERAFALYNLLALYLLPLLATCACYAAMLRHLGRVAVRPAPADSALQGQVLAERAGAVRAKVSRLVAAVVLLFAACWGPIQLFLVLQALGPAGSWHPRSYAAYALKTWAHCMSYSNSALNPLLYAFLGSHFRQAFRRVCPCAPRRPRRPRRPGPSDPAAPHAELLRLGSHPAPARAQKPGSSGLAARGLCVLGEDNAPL

RRMKWKKY[dA]NWNGFG[dW]RF-NH2 [p271, p234 with a penetratin tag]
intrinsic calcium response (human GPR54): no significant intrinsic calcium response
effect on LH pulses (LH pulses): inhibited LH pulses
effect on KP10-induced LH response in female dogs (plasma LH concentration [1]; anestrous bitches): had no effect
effect on plasma LH concentration in castrated male dogs (plasma LH concentration [1]): had no effect
effect on basal plasma LH concentration, different stages of estrous cycle (plasma LH concentration [2]): did not result in a decrease
KP10-induced LH response, KP10 intracerebroventricular (circulating LH / puberty; [3]): blunted
KP10-induced LH response, KP10 intraperitoneal (circulating LH / puberty; [3]): absent
effect on post-castration rise in circulating LH (circulating LH / puberty; male rats, repeated peripheral administration): could prevent the post-castration rise in circulating LH
effect on KP10-induced rise in plasma LH (circulating LH / puberty; mice and rats, repeated peripheral administration): blunted the KP10-induced rise in plasma LH concentration
